From patent publication US6340764B1, “Reference compound for use in the analysis of levosimendan batches” (Orion Corporation, priority 1998, dated 2002)

Test system: bacterial mutagenity test (Ames test)
Experiment: bacterial mutagenity test (Ames test)
Type: cell-based

| Structure (SMILES) | genotoxic / mutagenic properties in the bacterial mutagenity test (Ames test) |
| --- | --- |
| CC1CC(=O)NN=C1c1ccc(NN=C(C#N)C#N)cc1 (single isomer, unassigned; (-)) [levosimendan, (−)-enantiomer of [[4-(1,4,5,6-tetrahydro-4-methyl-6-oxo-3-pyridazinyl)phenyl]hydrazono]propanedinitrile] | show potential genotoxic properties occasionally |
| CC1CC(=O)OC1(N=[N+]=[N-])c1ccc(NN=C(C#N)C#N)cc1 (centres unmarked) [Compound (I), [[4-(2-azido-3-methyl-5-oxotetrahydrofuran-2-yl)phenyl]hydrazono]propanedinitrile] | potent mutagen |
